Reference: US11453697B1, “Cyclic di-nucleotide compounds as sting agonists” (Merck Sharp & Dohme Corp., priority 2015, dated 2022)
Like-named read-outs stand apart in the source and are kept apart here.

Tests used:
[1] = test system: IFN-β secretion in THP1 cells; assay: IFN-β secretion in THP1 cell culture (5 h); format: cell-based, human
Outline: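 THP1 cells incubated with compound for 5 h at 37 °C, 5% CO2, and secreted IFN-β in supernatant quantified by AlphaLISA. Percent effect normalised to 30 uM cGAMP positive control and 0.3% DMSO. EC50 from 4-parameter fit.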

full-length WT STING = full-length WT STING (Homo sapiens (Human), UniProt Q86WV6, H232R); assay: 3H-cGAMP filtration binding assay (WT STING); settings: for EC50: competition with tritiated cGAMP, WT STING membrane
Procedure: The ability of compounds to bind STING is quantified by their ability to compete with tritiated cGAMP ligand for human STING receptor membrane using a radioactive filter-binding assay.
The basic WT STING filtration assay protocol is as follows:
Tritium levels for each reaction well were then measured using a PerkinElmer TopCount plate reader.
After normalization to controls, the percent activity for each compound concentration was calculated by measuring the amount of remaining radioactivity. The plot of percent activity versus the log of compound concentration was fit with a 4-parameter dose response equation to calculate EC50 values.

full-length HAQ STING = full-length HAQ STING (Homo sapiens (Human), UniProt Q86WV6, G230A/H232R/R293Q/R71H); assay: 3H-cGAMP filtration binding assay (HAQ STING); settings: competition with tritiated cGAMP, HAQ STING membrane; read-out: EC50 (nM), 3H-cGAMP filtration binding assay for HAQ STING
Outline: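 Competition binding of compounds against 8 nM [3H]cGAMP working stock on Hi-Five cell membranes overexpressing full-length HAQ STING; compound and membrane preincubated 60 min at RT before ligand addition. Bound radioactivity read by filtration and scintillation counting; percent activity normalized to controls, EC50 from 4-parameter fit.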

[2] = IFN-β secretion in THP1 cell culture, 5 h, compound at 30 μM, percent activation relative to 2′3′-cGAMP

Chain of full-length WT STING (Q86WV6 other isoform, or with tags, fused parts or gaps H232R (already in the parent)): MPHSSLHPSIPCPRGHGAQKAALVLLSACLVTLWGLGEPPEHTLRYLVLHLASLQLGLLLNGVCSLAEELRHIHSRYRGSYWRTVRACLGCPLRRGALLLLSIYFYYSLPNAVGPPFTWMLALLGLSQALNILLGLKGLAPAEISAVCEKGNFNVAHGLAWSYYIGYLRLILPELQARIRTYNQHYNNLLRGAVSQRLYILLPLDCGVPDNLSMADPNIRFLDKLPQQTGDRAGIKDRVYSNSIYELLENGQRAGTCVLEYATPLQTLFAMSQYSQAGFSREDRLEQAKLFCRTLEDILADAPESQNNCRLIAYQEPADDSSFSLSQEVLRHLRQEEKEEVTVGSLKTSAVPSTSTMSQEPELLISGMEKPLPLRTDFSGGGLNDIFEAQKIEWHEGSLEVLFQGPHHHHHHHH
Chain of full-length HAQ STING (Q86WV6 other isoform, or with tags, fused parts or gaps, stated change not applied): as the sequence (Q86WV6 other isoform, or with tags, fused parts or gaps H232R (already in the parent)) above, with R71H, G230A, R293Q counted along it

Row | Structure (SMILES) | % Effect at 30 μM relative to 2′3′-cGAMP [1, 2] [%] | EC50 (full-length HAQ STING) [nM] | other results
1 | Nc1nc2c(ncn2[C@@H]2O[C@@H]3COP(O)(=S)O[C@H]4[C@H](F)[C@H](n5cnc6c(N)ncnc65)O[C@@H]4COP(O)(=S)O[C@@H]2C3(F)F)c(=O)[nH]1 (single isomer, unassigned) [Example 155] | – | – | % Effect at 30 μM relative to 2′3′-cGAMP [1]: 139%; EC50 (full-length WT STING; EC50 (nM), 3H-cGAMP filtration binding assay for WT STING): < 1 nM
2 | Nc1nc2c(ncn2[C@@H]2O[C@@H]3COP(O)(=S)O[C@H]4[C@H](F)[C@H](n5cnc6c(N)ncnc65)O[C@@H]4COP(O)(=S)O[C@@H]2C3(F)F)c(=O)[nH]1 (single isomer, unassigned) [Example 156] | – | – | % Effect at 30 μM relative to 2′3′-cGAMP [1]: 119%; EC50 (full-length WT STING; read-out: EC50 (nM), 3H-cGAMP filtration binding assay for WT STING): < 1 nM
3 | Nc1cc2c(ncn2[C@@H]2O[C@@H]3COP(=O)(S)O[C@H]4[C@H](F)[C@H](n5ccc6c(N)ncnc65)O[C@@H]4COP(=O)(S)O[C@@H]2[C@@H]3F)c(=O)[nH]1 (single isomer, unassigned) [Example 229] | – | – | inhibition at 20 µM (full-length WT STING; read-out: % Inh @ 20 uM, 3H-cGAMP filtration binding assay for WT STING): 31%
4 | CO[C@H]1[C@H]2OP(=O)(O)OC[C@H]3O[C@@H](n4cnc5c(O)ncnc54)[C@H](O)[C@@H]3OP(=O)(O)OC[C@H]1O[C@H]2n1cnc2c(=O)[nH]c(N)nc21 [Example 301, 2-amino-9-[(5R,7R,8R,12aR,14R,15R,15aS,16R)-2,10,15-trihydroxy-14-(6-hydroxy-9H-purin-9-yl)-16-methoxy-2,10-dioxidooctahydro-12H-5,8-methanofuro[3,2-l][1,3,6,9,11,2,10]pentaoxadiphosphacyclotetradecin-7-yl]-1,9-dihydro-6H-purin-6-one] | 107 | 4.8 | –
5 | [N-]=[N+]=N[C@H]1[C@H]2OP(=O)(O)OC[C@H]3O[C@@H](n4cnc5c(O)ncnc54)[C@H](O)[C@@H]3OP(=O)(O)OC[C@H]1O[C@H]2n1cnc2c(=O)[nH]c(N)nc21 [Example 302, 2-amino-9-[(5S,7R,8R,12aR,14R,15R,15aS,16R)-16-azido-2,10,15-trihydroxy-14-(6-hydroxy-9H-purin-9-yl)-2,10-dioxidooctahydro-12H-5,8-methanofuro[3,2-l] [1,3,6,9,11,2,10]pentaoxadiphosphacyclo-tetradecin-7-yl]-1,9-dihydro-6H-purin-6-one] | 103 | 2.3 | –
6 | Nc1nc2c(ncn2[C@@H]2O[C@@H]3COP(O)(=S)O[C@H]4[C@H](F)[C@H](n5cnc6c(=O)[nH]cnc65)O[C@@H]4COP(=O)(O)O[C@@H]2[C@@H]3F)c(=O)[nH]1 (stereo partly drawn) [Example 303, 2-amino-9-[(5R,7R,8S,12aR,14R,15S,15aR,16R)-15,16-difluoro-2,10-dihydroxy-10-oxido-14-(6-oxo-1,6-dihydro-9H-purin-9-yl)-2-sulfidooctahydro-12H-5,8-methanofuro[3,2-l][1,3,6,9,11,2,10]pentaoxadiphosphacyclotetradecin-7-yl]-1,9-dihydro-6H-purin-6-one] | – | < 1 | % Effect at 30 μM relative to 2′3′-cGAMP [1]: 106%
7 | Nc1nc2c(ncn2[C@@H]2O[C@@H]3COP(=O)(O)O[C@H]4[C@H](F)[C@H](n5cnc6c(=O)[nH]cnc65)O[C@@H]4COP(=O)(O)O[C@@H]2C3)c(=O)[nH]1 [Example 312, 2-amino-9-[(5S,7R,8R,12aR,14R,15S,15aR)-15-fluoro-2,10-dihydroxy-2,10-dioxido-14-(6-oxo-1,6-dihydro-9H-purin-9-yl)octahydro-12H-5,8-methanofuro[3,2-l] [1,3,6,9,11,2,10]pentaoxadiphosphacyclo-tetradecin-7-yl]-1,9-dihydro-6H-purin-6-one] | 90 | 122 | –
8 | Nc1nc2c(ncn2[C@@H]2O[C@@H]3COP(=O)(O)O[C@H]4C[C@H](n5cnc6c(=O)[nH]cnc65)O[C@@H]4COP(=O)(O)O[C@@H]2C3)c(=O)[nH]1 [Example 313, 2-amino-9-[(5S,7R,8R,12aR,14R,15aS)-2,10-dihydroxy-2,10-dioxido-14-(6-oxo-1,6-dihydro-9H-purin-9-yl)octahydro-12H-5,8-methanofuro[3,2-l] [1,3,6,9,11,2,10]pentaoxadiphosphacyclo-tetradecin-7-yl]-1,9-dihydro-6H-purin-6-one] | 117 | 211 | –
9 | Nc1nc2c(ncn2[C@@H]2O[C@@H]3COP(=O)(O)O[C@H]4[C@@H](F)[C@H](n5cnc6c(=O)[nH]cnc65)O[C@@H]4COP(=O)(O)O[C@@H]2[C@@H]3F)c(=O)[nH]1 [Example 314, 2-amino-9-[(5R,7R,8S,12aR,14R,15R,15aR,16R)-15,16-difluoro-2,10-dihydroxy-2,10-dioxido-14-(6-oxo-1,6-dihydro-9H-purin-9-yl)octahydro-12H-5,8-methanofuro [3,2-l][1,3,6,9,11,2,10]pentaoxadiphosphacyclotetradecin-7-yl]-1,9-dihydro-6H-purin-6-one] | 143 | < 1 | –
10 | Nc1nc2c(ncn2[C@@H]2O[C@@H]3COP(=O)(O)O[C@H]4[C@H](F)[C@H](n5cnc6c(=O)[nH]cnc65)O[C@@H]4COP(=O)(O)O[C@@H]2[C@@H]3F)c(=O)[nH]1 [Example 315, 2-amino-9-[(5R,7R,8S,12aR,14R,15S,15aR,16R)-15,16-difluoro-2,10-dihydroxy-2,10-dioxido-14-(6-oxo-1,6-dihydro-9H-purin-9-yl)octahydro-12H-5,8-methanofuro [3,2-l][1,3,6,9,11,2,10]pentaoxadiphosphacyclotetradecin-7-yl]-1,9-dihydro-6H-purin-6-one] | 92 | 49.9 | –
11 | Nc1nc2c(ncn2[C@@H]2O[C@@]34CO[C@H]3[C@H]2OP(=O)(O)OC[C@H]2O[C@@H](n3cnc5c(=O)[nH]cnc53)[C@H](O)[C@@H]2OP(=O)(O)OC4)c(=O)[nH]1 [Example 316, 2-amino-9-[(2aR,6aS,7R,8R,9aR,14R,14aS,15R)-5,7,12-trihydroxy-5,12-dioxido-8-(6-oxo-1,6-dihydro-9H-purin-9-yl)hexahydro-6aH,2a,14-(epoxymethano)furo [3,2-d]oxeto[2,3-k][1,3,7,9,2,8]tetraoxadiphosphacyclotridecin-15(2H,3H)-yl]-1,9-dihydro-6H-purin-6-one] | 12 | 2320 | –
12 | Nc1nc2c(ncn2[C@@H]2S[C@@H]3COP(=O)(O)O[C@H]4[C@@H](O)[C@H](n5cnc6c(=O)[nH]cnc65)O[C@@H]4COP(=O)(O)O[C@@H]2[C@@H]3O)c(=O)[nH]1 [Example 319, 2-amino-9-[(5R,7R,8R,12aR,14R,15R,15aS,16S)-2,10,15,16-tetrahydroxy-2,10-dioxido-14-(6-oxo-1,6-dihydro-9H-purin-9-yl)octahydro-12H-5,8-methanofuro[3,2-l][1,3,6,9,11,6,2,10]tetraoxathiadiphosphacyclotetradecin-7-yl]-1,9-dihydro-6H-purin-6-one] | 143 | 7.3 | –
13 | Nc1nc2c(ncn2[C@@H]2O[C@@H]3COP(=O)(S)O[C@H]4[C@H](F)[C@H](n5nnc6c(=O)[nH]cnc65)O[C@@H]4COP(=O)(S)O[C@@H]2C3)c(=O)[nH]1 (stereo partly drawn) [Example 320, 3-[(5S,7R,8R,12aR,14R,15S,15aR)-7-(2-amino-6-oxo-1,6-dihydro-9H-purin-9-yl)-15-fluoro-2,10-dioxido-2,10-disulfanyloctahydro-12H-5,8-methanofuro[3,2-l][1,3,6,9,11,2,10]pentaoxadiphosphacyclotetradecin-14-yl]-3,6-dihydro-7H-[1,2,3]triazolo[4,5-d]pyrimidin-7-one] | 115 | 6.3 | –
14 | Nc1nc2c(ncn2[C@@H]2O[C@@H]3COP(=O)(O)O[C@H]4[C@H](Cl)[C@H](n5cnc6c(=O)[nH]cnc65)O[C@@H]4COP(=O)(O)O[C@@H]2[C@@H]3O)c(=O)[nH]1 [Example 322, 2-amino-9-[(5R,7R,8R,12aR,14R, 15S,15aR,16R)-15-chloro-2,10,16-trihydroxy-2,10-dioxido-14-(6-oxo-1,6-dihydro-9H-purin-9-yl)octahydro-12H-5,8-methanofuro[3,2-l][1,3,6,9,11,2,10]pentaoxadiphosphacyclotetradecin-7-yl]-1,9-dihydro-6H-purin-6-one] | 41 | 68.8 | –
15 | Nc1nc2c(ncn2[C@@H]2O[C@@H]3COP(=O)(O)O[C@H]4C[C@H](n5cnc6c(=O)[nH]cnc65)O[C@@H]4COP(=O)(O)O[C@@H]2[C@@H]3F)c(=O)[nH]1 [Example 332, 2-amino-9-[(5R,7R,8S,12aR,14R,15aS,16R)-16-fluoro-2,10-dihydroxy-2,10-dioxido-14-(6-oxo-1,6-dihydro-9H-purin-9-yl)octahydro-12H-5,8-methanofuro[3,2-l][1,3,6,9,11,2,10]pentaoxadiphosphacy-clotetradecin-7-yl]-1,9-dihydro-6H-purin-6-one] | 113 | 8.2 | –
16 | O=c1[nH]cnc2c1ncn2[C@@H]1O[C@@H]2COP(=O)(O)O[C@@H]3C[C@@H](COP(=O)(O)O[C@H]2[C@H]1O)O[C@H]3n1cnc2c(=O)[nH]cnc21 [Example 333] | 10 | 45.9 | –
